Source: PubChem BioAssay AID1963858 (Molecular Pharmacology Branch, DTP, NCI, 2024)

Tested on: HOP-62 multicell spheroids with HUVEC/MSC, viability
Experiment: Anticancer human tumor HOP-62 cell line growth inhibition [KRAS2];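 also: viability read after a week of compound exposure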;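 as to viability, T/C: 100% = DMSO vehicle-treated spheroids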
Details: for IC50: curve of first compound; for viability, T/C: stronger effect = lower value
In short: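 Combination screen of spheroid viability in tumor-cell co-cultures with endothelial (HUVEC) and mesenchymal stem cell stroma. Each agent was tested in half-log dilutions, topping at clinical Cmax or at 10 microM without a known Cmax.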

[1] = second compound 0.1 µM, first compound 0.00316 µM
[2] = second compound 0.1 µM, first compound 0.01 µM
[3] = second compound 0.1 µM, first compound 0.0316 µM
[4] = second compound 0.1 µM, first compound 0.1 µM
[5] = second compound 0.1 µM, first compound 0.316 µM
[6] = second compound 0.1 µM, first compound 1 µM
[7] = second compound 0.316 µM, first compound 0.00316 µM
[8] = second compound 0.316 µM, first compound 0.01 µM
[9] = second compound 0.316 µM, first compound 0.0316 µM
[10] = second compound 0.316 µM, first compound 0.1 µM
[11] = second compound 0.316 µM, first compound 0.316 µM
[12] = second compound 0.316 µM, first compound 1 µM
[13] = second compound 1 µM, first compound 0.00316 µM
[14] = second compound 1 µM, first compound 0.01 µM
[15] = second compound 1 µM, first compound 0.0316 µM
[16] = second compound 1 µM, first compound 0.1 µM
[17] = second compound 1 µM, first compound 0.316 µM
[18] = second compound 1 µM, first compound 1 µM
[19] = second compound 3.16 µM, first compound 0.00316 µM
[20] = second compound 3.16 µM, first compound 0.01 µM
[21] = second compound 3.16 µM, first compound 0.0316 µM
[22] = second compound 3.16 µM, first compound 0.1 µM
[23] = second compound 3.16 µM, first compound 0.316 µM
[24] = second compound 3.16 µM, first compound 1 µM
[25] = second compound 10 µM, first compound 0.00316 µM
[26] = second compound 10 µM, first compound 0.01 µM
[27] = second compound 10 µM, first compound 0.0316 µM
[28] = second compound 10 µM, first compound 0.1 µM
[29] = second compound 10 µM, first compound 0.316 µM
[30] = second compound 10 µM, first compound 1 µM

Which IC50 (second compound 0.1 µM) does the source give for `CCN1CCN(Cc2ccc(Nc3ncc(F)c(-c4cc(F)c5nc(C)n(C(C)C)c5c4)n3)nc2)CC1` + COc1cc2nc(C)nc(NC(C)c3cc(N)cc(C(F)(F)F)c3)c2cc1OC1CCOC1 here?
The IC50 was 911 nM.

And the IC50 (second compound 0.316 µM)?
The IC50 was 979 nM.

And the IC50 (second compound 1 µM)?
Its IC50 is 613 nM.

What about the IC50 (second compound 3.16 µM) of the same compound?
The IC50 was 23.2 nM.

And the IC50 (second compound 10 µM)?
The IC50 was < 3.16 nM.

And the viability, T/C [1]?
Its viability, T/C is 102%.

What about the viability, T/C [2] of the same compound?
The viability, T/C was 97%.

And the viability, T/C [3]?
The viability, T/C was 84.2%.

What about the viability, T/C [4] of the same compound?
The viability, T/C was 79.4%.

What about the viability, T/C [5] of the same compound?
The viability, T/C was 73.8%.

What about the viability, T/C [6] of the same compound?
The viability, T/C was 45.6%.

And the viability, T/C [7]?
The viability, T/C was 101%.

And the viability, T/C [8]?
Its viability, T/C is 93.5%.

And the viability, T/C [9]?
The viability, T/C was 85.6%.

And the viability, T/C [10]?
Its viability, T/C is 69.9%.

And the viability, T/C [11]?
Its viability, T/C is 63.2%.

And the viability, T/C [12]?
Its viability, T/C is 49.2%.

And the viability, T/C [13]?
The viability, T/C was 80.8%.

And the viability, T/C [14]?
Its viability, T/C is 74.4%.

What about the viability, T/C [15] of the same compound?
Its viability, T/C is 67.6%.

And the viability, T/C [16]?
The viability, T/C was 69.9%.

What about the viability, T/C [17] of the same compound?
The viability, T/C was 49.6%.

What about the viability, T/C [18] of the same compound?
Its viability, T/C is 47.8%.

What about the viability, T/C [19] of the same compound?
Its viability, T/C is 55.5%.

What about the viability, T/C [20] of the same compound?
Its viability, T/C is 52.9%.

And the viability, T/C [21]?
Its viability, T/C is 50.6%.

What about the viability, T/C [22] of the same compound?
Its viability, T/C is 41.8%.

And the viability, T/C [23]?
The viability, T/C was 42.4%.

What about the viability, T/C [24] of the same compound?
Its viability, T/C is 34.8%.

What about the viability, T/C [25] of the same compound?
The viability, T/C was 49.9%.

And the viability, T/C [26]?
Its viability, T/C is 32.2%.

And the viability, T/C [27]?
The viability, T/C was 24.4%.

What about the viability, T/C [28] of the same compound?
Its viability, T/C is 21.9%.

What about the viability, T/C [29] of the same compound?
The viability, T/C was 18.5%.

What about the viability, T/C [30] of the same compound?
The viability, T/C was 0.89%.

How did the IC50 (second compound 0.1 µM) turn out when `CCNC(=O)CC1N=C(c2ccc(Cl)cc2)c2cc(OC)ccc2-n2c(C)nnc21` (stereo not given) + COc1cc2nc(C)nc(NC(C)c3cc(N)cc(C(F)(F)F)c3)c2cc1OC1CCOC1 was run?
The IC50 was 271 nM.

What about the IC50 (second compound 0.316 µM) of the same compound?
Its IC50 is 189 nM.

And the IC50 (second compound 1 µM)?
Its IC50 is 193 nM.

And the IC50 (second compound 3.16 µM)?
The IC50 was 60.8 nM.

And the IC50 (second compound 10 µM)?
The IC50 was < 31.6 nM.

What about the viability, T/C [3] of the same compound?
The viability, T/C was 90.5%.

And the viability, T/C [4]?
Its viability, T/C is 75.9%.

What about the viability, T/C [5] of the same compound?
The viability, T/C was 44.3%.

And the viability, T/C [6]?
Its viability, T/C is 29.4%.

What about the viability, T/C (second compound 0.1 µM, first compound 3.16 µM) of the same compound?
Its viability, T/C is 21.9%.

What about the viability, T/C (second compound 0.1 µM, first compound 10 µM) of the same compound?
Its viability, T/C is 18.2%.

What about the viability, T/C [9] of the same compound?
Its viability, T/C is 90.4%.

What about the viability, T/C [10] of the same compound?
Its viability, T/C is 65%.

What about the viability, T/C [11] of the same compound?
Its viability, T/C is 37.8%.

And the viability, T/C [12]?
Its viability, T/C is 23.7%.

And the viability, T/C (second compound 0.316 µM, first compound 3.16 µM)?
Its viability, T/C is 19%.

What about the viability, T/C (second compound 0.316 µM, first compound 10 µM) of the same compound?
The viability, T/C was 18.5%.

What about the viability, T/C [15] of the same compound?
The viability, T/C was 89.2%.

And the viability, T/C [16]?
Its viability, T/C is 59.8%.

And the viability, T/C [17]?
Its viability, T/C is 46.9%.

And the viability, T/C [18]?
The viability, T/C was 17.5%.

What about the viability, T/C (second compound 1 µM, first compound 3.16 µM) of the same compound?
Its viability, T/C is 16.9%.

What about the viability, T/C (second compound 1 µM, first compound 10 µM) of the same compound?
The viability, T/C was 14.4%.

And the viability, T/C [21]?
Its viability, T/C is 60.1%.

What about the viability, T/C [22] of the same compound?
Its viability, T/C is 41.7%.

What about the viability, T/C [23] of the same compound?
Its viability, T/C is 29.1%.

And the viability, T/C [24]?
Its viability, T/C is 17.2%.

And the viability, T/C (second compound 3.16 µM, first compound 3.16 µM)?
The viability, T/C was 15.5%.

What about the viability, T/C (second compound 3.16 µM, first compound 10 µM) of the same compound?
The viability, T/C was 15.2%.

And the viability, T/C [27]?
The viability, T/C was 43%.

And the viability, T/C [28]?
Its viability, T/C is 35.9%.

What about the viability, T/C [29] of the same compound?
The viability, T/C was 29.3%.

What about the viability, T/C [30] of the same compound?
Its viability, T/C is 15.8%.

And the viability, T/C (second compound 10 µM, first compound 3.16 µM)?
The viability, T/C was 9.2%.

What about the viability, T/C (second compound 10 µM, first compound 10 µM) of the same compound?
Its viability, T/C is 4.11%.

Which results are given for `Cn1ncnc1[C@H]1c2n[nH]c(=O)c3cc(F)cc(c23)N[C@@H]1c1ccc(F)cc1` + COc1cc2nc(C)nc(NC(C)c3cc(N)cc(C(F)(F)F)c3)c2cc1OC1CCOC1?
IC50 (second compound 0.1 µM): > 100 nM; IC50 (second compound 0.316 µM): > 100 nM; IC50 (second compound 1 µM): > 100 nM; IC50 (second compound 3.16 µM): 74.2 nM; IC50 (second compound 10 µM): 2.96 nM; viability, T/C (second compound 0.1 µM, first compound 0.000316 µM): 95.1%; viability, T/C (second compound 0.1 µM, first compound 0.001 µM): 102%; viability, T/C [1]: 94.3%; viability, T/C [2]: 87%; viability, T/C [3]: 97.6%; viability, T/C [4]: 70.4%; viability, T/C (second compound 0.316 µM, first compound 0.000316 µM): 104%; viability, T/C (second compound 0.316 µM, first compound 0.001 µM): 91.7%; viability, T/C [7]: 86.8%; viability, T/C [8]: 94.2%; viability, T/C [9]: 83.5%; viability, T/C [10]: 78.8%; viability, T/C (second compound 1 µM, first compound 0.000316 µM): 96%; viability, T/C (second compound 1 µM, first compound 0.001 µM): 89.5%; viability, T/C [13]: 69.9%; viability, T/C [14]: 66.6%; viability, T/C [15]: 66%; viability, T/C [16]: 57.1%; viability, T/C (second compound 3.16 µM, first compound 0.000316 µM): 75.7%; viability, T/C (second compound 3.16 µM, first compound 0.001 µM): 85.6%; viability, T/C [19]: 72.8%; viability, T/C [20]: 58.1%; viability, T/C [21]: 48.5%; viability, T/C [22]: 51%; viability, T/C (second compound 10 µM, first compound 0.000316 µM): 58.6%; viability, T/C (second compound 10 µM, first compound 0.001 µM): 59%; viability, T/C [25]: 50.8%; viability, T/C [26]: 40.8%; viability, T/C [27]: 42.8%; viability, T/C [28]: 41.6%
